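Following 48 hours of exposure in 96-well plates, responses at five concentrations were used to interpolate endpoints linearly. GI50 marks 50% less growth.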 The source made the active and inactive calls. Cut-off read from the data, not from the text of the source: active = GI50 up to about 1.1 µM and inactive = higher.
How the values were obtained:
Test in all cases: inhibition of tumour cell growth, NCI panel, 48 h
CCRF-CEM = tested on: CCRF-CEM
MDA-MB-435 = tested on: MDA-MB-435
COLO 205 = tested on: COLO 205
TK-10 = tested on: TK-10
HL-60 = tested on: HL-60
SN12C = tested on: SN12C
A498 = tested on: A498
K562 = tested on: K562
Malme-3M = tested on: Malme-3M
SF-539 = tested on: SF-539
NCI/ADR-RES = tested on: NCI/ADR-RES
CAKI-1 = tested on: CAKI-1
Hs-578T = tested on: Hs-578T
786-0 = tested on: 786-0
UO-31 = tested on: UO-31
T47D = tested on: T47D
BT-549 = tested on: BT-549
LOX IMVI = tested on: LOX IMVI
NCI-H522 = tested on: NCI-H522
MDA-MB-231 = tested on: MDA-MB-231
NCI-H226 = tested on: NCI-H226
KM12 = tested on: KM12
OVCAR-4 = tested on: OVCAR-4
HCT-15 = tested on: HCT-15
SK-MEL-5 = tested on: SK-MEL-5
SF-295 = tested on: SF-295
UACC-62 = tested on: UACC-62
ACHN = tested on: ACHN
MCF7 = tested on: MCF7
HCC 2998 = tested on: HCC 2998
U-251 = tested on: U-251
OVCAR-8 = tested on: OVCAR-8
M14 = tested on: M14
OVCAR-3 = tested on: OVCAR-3
MDA-N = tested on: MDA-N
SNB-75 = tested on: SNB-75
SK-MEL-2 = tested on: SK-MEL-2
RXF 393 = tested on: RXF 393
SNB-19 = tested on: SNB-19
SK-MEL-28 = tested on: SK-MEL-28
MOLT-4 = tested on: MOLT-4
HCT-116 = tested on: HCT-116
PC-3 = tested on: PC-3
SK-OV-3 = tested on: SK-OV-3
UACC-257 = tested on: UACC-257
HOP-92 = tested on: HOP-92
HOP-62 = tested on: HOP-62
RPMI-8226 = tested on: RPMI-8226
NCI-H460 = tested on: NCI-H460
HT-29 = tested on: HT-29
OVCAR-5 = tested on: OVCAR-5
NCI-H23 = tested on: NCI-H23
EKVX = tested on: EKVX
IGROV-1 = tested on: IGROV-1
A549 = tested on: A549
SW-620 = tested on: SW-620
SF-268 = tested on: SF-268

Question: `CCCCCCCCCCCCCCCCOCC(Cl)COP(=O)(O)OP(=O)(O)OCC1OC(n2cnc3c(N)ncnc32)C(O)C1O` (configuration not stated) was tested. Which GI50 (CCRF-CEM) did it give?
Answer: > 100 µM (inactive)

Question: And the GI50 (MDA-MB-435)?
Answer: 54.7 µM (inactive)

Question: And the GI50 (COLO 205)?
Answer: > 100 µM (inactive)

Question: What about the GI50 (TK-10) of the same compound?
Answer: > 100 µM (inactive)

Question: What about the GI50 (HL-60) of the same compound?
Answer: > 100 µM (inactive)

Question: And the GI50 (SN12C)?
Answer: > 100 µM (inactive)

Question: What about the GI50 (A498) of the same compound?
Answer: > 100 µM (inactive)

Question: What about the GI50 (K562) of the same compound?
Answer: > 100 µM (inactive)

Question: What about the GI50 (Malme-3M) of the same compound?
Answer: > 100 µM (inactive)

Question: And the GI50 (SF-539)?
Answer: 76 µM (inactive)

Question: And the GI50 (NCI/ADR-RES)?
Answer: > 100 µM (inactive)

Question: What about the GI50 (CAKI-1) of the same compound?
Answer: > 100 µM (inactive)

Question: And the GI50 (Hs-578T)?
Answer: 32.4 µM (inactive)

Question: What about the GI50 (786-0) of the same compound?
Answer: > 100 µM (inactive)

Question: What about the GI50 (UO-31) of the same compound?
Answer: 61 µM (inactive)

Question: And the GI50 (T47D)?
Answer: 84.5 µM (inactive)

Question: And the GI50 (BT-549)?
Answer: > 100 µM (inactive)

Question: What about the GI50 (LOX IMVI) of the same compound?
Answer: 75.9 µM (inactive)

Question: And the GI50 (NCI-H522)?
Answer: > 100 µM (inactive)

Question: And the GI50 (MDA-MB-231)?
Answer: 38.7 µM (inactive)

Question: What about the GI50 (NCI-H226) of the same compound?
Answer: 36.7 µM (inactive)

Question: What about the GI50 (KM12) of the same compound?
Answer: 86.9 µM (inactive)

Question: What about the GI50 (OVCAR-4) of the same compound?
Answer: > 100 µM (inactive)

Question: And the GI50 (HCT-15)?
Answer: > 100 µM

Question: And the GI50 (SK-MEL-5)?
Answer: > 100 µM (inactive)

Question: What about the GI50 (SF-295) of the same compound?
Answer: > 100 µM (inactive)

Question: What about the GI50 (UACC-62) of the same compound?
Answer: > 100 µM (inactive)

Question: What about the GI50 (ACHN) of the same compound?
Answer: > 100 µM (inactive)

Question: What about the GI50 (MCF7) of the same compound?
Answer: > 100 µM (inactive)

Question: And the GI50 (HCC 2998)?
Answer: > 100 µM (inactive)

Question: What about the GI50 (U-251) of the same compound?
Answer: > 100 µM (inactive)

Question: What about the GI50 (OVCAR-8) of the same compound?
Answer: > 100 µM (inactive)

Question: And the GI50 (M14)?
Answer: 83.6 µM (inactive)

Question: What about the GI50 (OVCAR-3) of the same compound?
Answer: > 100 µM (inactive)

Question: What about the GI50 (MDA-N) of the same compound?
Answer: 61.8 µM (inactive)

Question: What about the GI50 (SNB-75) of the same compound?
Answer: 31 µM (inactive)

Question: And the GI50 (SK-MEL-2)?
Answer: > 100 µM (inactive)

Question: What about the GI50 (RXF 393) of the same compound?
Answer: > 100 µM (inactive)

Question: What about the GI50 (SNB-19) of the same compound?
Answer: > 100 µM (inactive)

Question: What about the GI50 (SK-MEL-28) of the same compound?
Answer: > 100 µM (inactive)

Question: What about the GI50 (MOLT-4) of the same compound?
Answer: > 100 µM (inactive)

Question: And the GI50 (HCT-116)?
Answer: 38.1 µM (inactive)

Question: And the GI50 (PC-3)?
Answer: 29.9 µM (inactive)

Question: And the GI50 (SK-OV-3)?
Answer: 68.5 µM (inactive)

Question: And the GI50 (UACC-257)?
Answer: > 100 µM (inactive)

Question: And the GI50 (HOP-92)?
Answer: 70.8 µM (inactive)

Question: And the GI50 (HOP-62)?
Answer: > 100 µM (inactive)

Question: And the GI50 (RPMI-8226)?
Answer: > 100 µM (inactive)

Question: And the GI50 (NCI-H460)?
Answer: 52.4 µM (inactive)

Question: And the GI50 (HT-29)?
Answer: > 100 µM (inactive)

Question: And the GI50 (OVCAR-5)?
Answer: 50.7 µM (inactive)

Question: What about the GI50 (NCI-H23) of the same compound?
Answer: > 100 µM (inactive)

Question: And the GI50 (EKVX)?
Answer: > 100 µM (inactive)

Question: What about the GI50 (IGROV-1) of the same compound?
Answer: > 100 µM (inactive)

Question: What about the GI50 (A549) of the same compound?
Answer: > 100 µM (inactive)

Question: What about the GI50 (SW-620) of the same compound?
Answer: > 100 µM (inactive)

Question: What about the GI50 (SF-268) of the same compound?
Answer: > 100 µM (inactive)
